Values of other authors, collected in patent US6350369B1, “Method and system for determining analyte activity” (California Institute of Technology, priority 1998, dated 2002).

Tested on: cytochrome P-450
Conditions: cytochrome P-450 aniline p-hydroxylation inhibition, in words

OCc1ccccc1 [benzyl alcohol]
inhibitory activity compared with QSAR prediction: higher activity than is predicted
